PubChem BioAssay (NCI)
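The concentration for 50% growth inhibition is given as GI50. Definition used: TGI = concentration required for complete inhibition of growth.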

Assays:
Assay in all cases: growth of human tumour cells (NCI), 384-well format
A498 renal = test system: A498 renal
A549 NSCLC = test system: A549 NSCLC
ACHN renal = test system: ACHN renal
BT-549 breast = test system: BT-549 breast
CAKI-1 renal = test system: CAKI-1 renal
CCRF-CEM leukemia = test system: CCRF-CEM leukemia
COLO 205 colon = test system: COLO 205 colon
DU-145 prostate = test system: DU-145 prostate
EKVX NSCLC = test system: EKVX NSCLC
HCC-2998 colon = test system: HCC-2998 colon
HCT-116 colon = test system: HCT-116 colon
HCT-15 colon = test system: HCT-15 colon
HOP-62 NSCLC = test system: HOP-62 NSCLC
HOP-92 NSCLC = test system: HOP-92 NSCLC
HS 578T breast = test system: HS 578T breast
HT29 colon = test system: HT29 colon
IGROV1 ovarian = test system: IGROV1 ovarian
K-562 leukemia = test system: K-562 leukemia
LOX IMVI melanoma = test system: LOX IMVI melanoma
M14 melanoma = test system: M14 melanoma
MALME-3M melanoma = test system: MALME-3M melanoma
MCF7 breast = test system: MCF7 breast
MDA-MB-231 breast = test system: MDA-MB-231 breast
MDA-MB-435 melanoma = test system: MDA-MB-435 melanoma
MDA-MB-468 breast = test system: MDA-MB-468 breast
NCI-H226 lung = test system: NCI-H226 lung
NCI-H23 lung = test system: NCI-H23 lung
NCI-H460 NSCLC = test system: NCI-H460 NSCLC
NCI-H522 lung = test system: NCI-H522 lung
OVCAR-3 ovarian = test system: OVCAR-3 ovarian
OVCAR-4 ovarian = test system: OVCAR-4 ovarian
OVCAR-5 ovarian = test system: OVCAR-5 ovarian
OVCAR-8 ovarian = test system: OVCAR-8 ovarian
PC-3 prostate = test system: PC-3 prostate
RXF 393 renal = test system: RXF 393 renal
SF-268 CNS = test system: SF-268 CNS
SF-539 CNS = test system: SF-539 CNS
SK-MEL-28 melanoma = test system: SK-MEL-28 melanoma
SK-MEL-5 melanoma = test system: SK-MEL-5 melanoma
SK-OV-3 ovarian = test system: SK-OV-3 ovarian
SN12C renal = test system: SN12C renal
SNB-19 CNS = test system: SNB-19 CNS
SNB-75 CNS = test system: SNB-75 CNS
SR leukemia = test system: SR leukemia
SW-620 colon = test system: SW-620 colon
T-47D breast = test system: T-47D breast
TK-10 renal = test system: TK-10 renal
UACC-257 melanoma = test system: UACC-257 melanoma
786-0 renal = test system: 786-0 renal
KM12 colon = test system: KM12 colon
NCI-H322M lung = test system: NCI-H322M lung
NCI/ADR-RES ovarian = test system: NCI/ADR-RES ovarian
SF-295 CNS = test system: SF-295 CNS
U251 glioblastoma = test system: U251 glioblastoma
UACC-62 melanoma = test system: UACC-62 melanoma
UO-31 renal = test system: UO-31 renal

For `N#CCC1CCN(c2nc(Nc3ccc(N4CCC(O)CC4)cc3)c3c(=O)[nH]ncc3n2)CC1`, the GI50 (A498 renal) was 0.804 µM, the TGI (A498 renal) was > 100 µM and the GI50 (A549 NSCLC) was 0.365 µM. The TGI (A549 NSCLC) was > 100 µM, the GI50 (ACHN renal) was 0.547 µM and the TGI (ACHN renal) was > 100 µM. For the same compound, the GI50 (BT-549 breast) was 0.538 µM, the TGI (BT-549 breast) was 2.25 µM and the GI50 (CAKI-1 renal) was 0.349 µM. The TGI (CAKI-1 renal) was > 100 µM, the GI50 (CCRF-CEM leukemia) was 0.332 µM and the TGI (CCRF-CEM leukemia) was > 100 µM. The GI50 (COLO 205 colon) was 0.24 µM, the TGI (COLO 205 colon) was 0.921 µM and the GI50 (DU-145 prostate) was 0.704 µM. The TGI (DU-145 prostate) was > 100 µM, the GI50 (EKVX NSCLC) was 0.277 µM and the TGI (EKVX NSCLC) was > 100 µM. It also gave a GI50 (HCC-2998 colon) of 0.378 µM, a TGI (HCC-2998 colon) of 2.91 µM and a GI50 (HCT-116 colon) of 0.336 µM. For the same compound, the TGI (HCT-116 colon) was > 100 µM, the GI50 (HCT-15 colon) was 0.453 µM and the TGI (HCT-15 colon) was > 100 µM. The GI50 (HOP-62 NSCLC) was 3.71 µM, the TGI (HOP-62 NSCLC) was > 100 µM and the GI50 (HOP-92 NSCLC) was 0.329 µM. For the same compound, the TGI (HOP-92 NSCLC) was > 100 µM, the GI50 (HS 578T breast) was 0.673 µM and the TGI (HS 578T breast) was 3.54 µM. For the same compound, the GI50 (HT29 colon) was 0.427 µM, the TGI (HT29 colon) was > 100 µM and the GI50 (IGROV1 ovarian) was 0.239 µM. The TGI (IGROV1 ovarian) was 3.48 µM, the GI50 (K-562 leukemia) was 0.482 µM and the TGI (K-562 leukemia) was > 100 µM. The GI50 (LOX IMVI melanoma) was 0.49 µM, the TGI (LOX IMVI melanoma) was 2.6 µM and the GI50 (M14 melanoma) was 0.346 µM. For the same compound, the TGI (M14 melanoma) was > 100 µM, the GI50 (MALME-3M melanoma) was 0.472 µM and the TGI (MALME-3M melanoma) was > 100 µM. For the same compound, the GI50 (MCF7 breast) was 0.254 µM, the TGI (MCF7 breast) was > 100 µM and the GI50 (MDA-MB-231 breast) was 5.42 µM. The TGI (MDA-MB-231 breast) was > 100 µM, the GI50 (MDA-MB-435 melanoma) was 0.311 µM and the TGI (MDA-MB-435 melanoma) was > 100 µM. For the same compound, the GI50 (MDA-MB-468 breast) was 1.01 µM, the TGI (MDA-MB-468 breast) was 3.47 µM and the GI50 (NCI-H226 lung) was 0.281 µM. For the same compound, the TGI (NCI-H226 lung) was > 100 µM, the GI50 (NCI-H23 lung) was 0.293 µM and the TGI (NCI-H23 lung) was > 100 µM. For the same compound, the GI50 (NCI-H460 NSCLC) was 0.319 µM, the TGI (NCI-H460 NSCLC) was > 100 µM and the GI50 (NCI-H522 lung) was 0.196 µM. The TGI (NCI-H522 lung) was 0.929 µM, the GI50 (OVCAR-3 ovarian) was 1.13 µM and the TGI (OVCAR-3 ovarian) was > 100 µM. The GI50 (OVCAR-4 ovarian) was > 100 µM, the TGI (OVCAR-4 ovarian) was > 100 µM and the GI50 (OVCAR-5 ovarian) was 0.602 µM. The TGI (OVCAR-5 ovarian) was > 100 µM, the GI50 (OVCAR-8 ovarian) was 5.18 µM and the TGI (OVCAR-8 ovarian) was > 100 µM. For the same compound, the GI50 (PC-3 prostate) was > 100 µM, the TGI (PC-3 prostate) was > 100 µM and the GI50 (RXF 393 renal) was 0.893 µM. It also gave a TGI (RXF 393 renal) of 3.27 µM, a GI50 (SF-268 CNS) of 1.43 µM and a TGI (SF-268 CNS) of 9.43 µM. For the same compound, the GI50 (SF-539 CNS) was 0.793 µM, the TGI (SF-539 CNS) was 2.39 µM and the GI50 (SK-MEL-28 melanoma) was 0.81 µM. For the same compound, the TGI (SK-MEL-28 melanoma) was > 100 µM, the GI50 (SK-MEL-5 melanoma) was 0.338 µM and the TGI (SK-MEL-5 melanoma) was > 100 µM. It also gave a GI50 (SK-OV-3 ovarian) of 0.235 µM, a TGI (SK-OV-3 ovarian) of 4.81 µM and a GI50 (SN12C renal) of 0.243 µM. The TGI (SN12C renal) was > 100 µM, the GI50 (SNB-19 CNS) was 2.75 µM and the TGI (SNB-19 CNS) was > 100 µM. The GI50 (SNB-75 CNS) was 1.24 µM, the TGI (SNB-75 CNS) was 3.17 µM and the GI50 (SR leukemia) was 0.18 µM. It also gave a TGI (SR leukemia) of 0.327 µM, a GI50 (SW-620 colon) of 0.441 µM and a TGI (SW-620 colon) of 2.21 µM. The GI50 (T-47D breast) was 4.39 µM, the TGI (T-47D breast) was > 100 µM and the GI50 (TK-10 renal) was 0.425 µM. The TGI (TK-10 renal) was 4.85 µM, the GI50 (UACC-257 melanoma) was > 100 µM and the TGI (UACC-257 melanoma) was > 100 µM.

With `CN1CC[C@H](N(C)C(=O)N2CC(c3cc(F)ccc3F)=C[C@@]2(CO)c2ccccc2)[C@H](F)C1` the TGI (786-0 renal) was 12.4 µM, the TGI (A498 renal) was 13 µM and the TGI (A549 NSCLC) was > 100 µM. For the same compound, the GI50 (ACHN renal) was 9.3 µM, the TGI (ACHN renal) was > 100 µM and the TGI (BT-549 breast) was 13.6 µM. The TGI (CAKI-1 renal) was > 100 µM, the TGI (EKVX NSCLC) was 28.2 µM and the TGI (HCC-2998 colon) was 13.3 µM. The TGI (HCT-116 colon) was 14.6 µM, the TGI (HCT-15 colon) was 28 µM and the TGI (HOP-62 NSCLC) was 25.9 µM. It also gave a GI50 (HOP-92 NSCLC) of 0.198 µM, a TGI (HOP-92 NSCLC) of 32.6 µM and a GI50 (IGROV1 ovarian) of 6.07 µM. For the same compound, the TGI (IGROV1 ovarian) was > 100 µM, the TGI (KM12 colon) was 10.9 µM and the TGI (LOX IMVI melanoma) was 20 µM. For the same compound, the TGI (MALME-3M melanoma) was 14.5 µM, the TGI (MCF7 breast) was 35.4 µM and the TGI (MDA-MB-231 breast) was > 100 µM. It also gave a TGI (NCI-H226 lung) of 8.16 µM, a TGI (NCI-H23 lung) of 0.0371 µM and a TGI (NCI-H322M lung) of 55.6 µM. The TGI (NCI/ADR-RES ovarian) was 0.0135 µM, the GI50 (OVCAR-4 ovarian) was 21.6 µM and the TGI (OVCAR-4 ovarian) was > 100 µM. For the same compound, the TGI (OVCAR-8 ovarian) was 11.4 µM, the TGI (PC-3 prostate) was 27.1 µM and the TGI (SF-268 CNS) was 11.7 µM. The TGI (SF-295 CNS) was 1.28 µM, the TGI (SF-539 CNS) was 11.6 µM and the GI50 (SK-MEL-28 melanoma) was 0.646 µM. For the same compound, the TGI (SK-MEL-28 melanoma) was 19.5 µM, the TGI (SK-MEL-5 melanoma) was 1.07 µM and the TGI (SK-OV-3 ovarian) was 26.8 µM. For the same compound, the TGI (SNB-19 CNS) was 27.5 µM, the TGI (SNB-75 CNS) was 27.4 µM and the TGI (SW-620 colon) was > 100 µM. The TGI (T-47D breast) was 43.1 µM, the GI50 (TK-10 renal) was 4.89 µM and the TGI (TK-10 renal) was 35.3 µM. The TGI (U251 glioblastoma) was 14.5 µM, the TGI (UACC-62 melanoma) was 16.5 µM and the GI50 (UO-31 renal) was 3.34 µM. It also gave a TGI (UO-31 renal) of 95.1 µM.
